According to article PMC3542197, “Downregulation of the Mitochondrial Phosphatase PTPMT1 Is Sufficient to Promote Cancer Cell Death” (PLoS ONE, 2013):
pIC50: −log10 of the molar value. Where a name gives a salt, the structure may show the parent alone.

Target: T1, PTPMT1 (Protein Tyrosine Phosphatase localized to the Mitochondrion 1) (Homo sapiens, UniProt Q8WUK0)
T1 construct: human PTPMT1 open reading frame cloned into pGEX-KG, purified using glutathione-conjugated sepharose
T1 sequence (Q8WUK0 1-201): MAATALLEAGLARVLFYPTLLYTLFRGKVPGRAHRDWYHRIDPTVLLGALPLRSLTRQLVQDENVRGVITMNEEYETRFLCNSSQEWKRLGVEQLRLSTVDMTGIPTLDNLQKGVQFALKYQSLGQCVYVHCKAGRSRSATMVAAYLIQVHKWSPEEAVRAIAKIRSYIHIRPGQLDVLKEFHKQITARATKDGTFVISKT
Experiment: in vitro phosphatase assay with recombinant enzyme, OMFP substrate, fluorescence readout
Type: biochemical

CCCCC(CC)CNC(=N)NC(=N)NCCCCCCNC(=N)NC(=N)NCC(CC)CCCC (stereo not shown) [alexidine dihydrochloride]
pIC50: 5.60
